Reference: patent US20220119354A1, “DIAMINO-SUBSTITUTED PYRIDINES AND PYRIMIDINES AS HERBICIDES” (FMC Corporation, priority 2019, published 2022)

Key:
Type in all cases: in vivo
[1] = test system: barnyardgrass (Echinochloa crus-galli); test: Test A preemergence, barnyardgrass; conditions: 0 to 100 scale, 0 is no effect, 100 is complete control
Procedure, shortened: (§1)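 0–100 visual control rating, ~10 d post-treatment, greenhouse. Pre = directed soil spray on seeded loam/sand; post = spray at 1–2 leaf stage. Surfactant-containing solvent formulation.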

kochia (Kochia scoparia) [2] = test: Test A preemergence, kochia; conditions: 0 to 100 scale, 0 is no effect, 100 is complete control
Procedure, shortened: as §1

[3] = test system: ragweed (common ragweed, Ambrosia elatior); test: Test A preemergence, ragweed; conditions: 0 to 100 scale, 0 is no effect, 100 is complete control
Procedure, shortened: as §1

[4] = test system: ryegrass, Italian (Lolium multiflorum); test: Test A preemergence, Italian ryegrass; conditions: 0 to 100 scale, 0 is no effect, 100 is complete control
Procedure, shortened: as §1

[5] = test system: foxtail, giant (Setaria faberii); test: Test A preemergence, giant foxtail; conditions: 0 to 100 scale, 0 is no effect, 100 is complete control
Procedure, shortened: as §1

[6] = test system: pigweed (Amaranthus retroflexus); test: Test A preemergence, pigweed; conditions: 0 to 100 scale, 0 is no effect, 100 is complete control
Procedure, shortened: as §1

[7] = test system: barnyardgrass (Echinochloa crus-galli); test: Test A postemergence, barnyardgrass; conditions: 0 to 100 scale, 0 no effect, 100 complete control
Procedure, shortened: as §1

kochia (Kochia scoparia) [8] = test: Test A postemergence, kochia; conditions: 0 to 100 scale, 0 no effect, 100 complete control
Procedure, shortened: as §1

[9] = test system: ragweed (common ragweed, Ambrosia elatior); test: Test A postemergence, ragweed; conditions: 0 to 100 scale, 0 no effect, 100 complete control
Procedure, shortened: as §1

[10] = test system: ryegrass, Italian (Lolium multiflorum); test: Test A postemergence, Italian ryegrass; conditions: 0 to 100 scale, 0 no effect, 100 complete control
Procedure, shortened: as §1

[11] = test system: foxtail, giant (Setaria faberii); test: Test A postemergence, giant foxtail; conditions: 0 to 100 scale, 0 no effect, 100 complete control
Procedure, shortened: as §1

[12] = test system: pigweed (Amaranthus retroflexus); test: Test A postemergence, pigweed; conditions: 0 to 100 scale, 0 no effect, 100 complete control
Procedure, shortened: as §1

[13] = test system: wheat (Triticum aestivum); test: Test A postemergence, wheat; conditions: 0 to 100 scale, 0 no effect, 100 complete control
Procedure, shortened: as §1

corn (Zea mays) = test: Test A postemergence, corn; conditions: 0 to 100 scale, 0 no effect, 100 complete control
Procedure, shortened: as §1

[14] = test system: blackgrass (Alopecurus myosuroides); test: Test A postemergence, blackgrass; conditions: 0 to 100 scale, 0 no effect, 100 complete control
Procedure, shortened: as §1

[15] = test system: galium (catchweed bedstraw, Galium aparine); test: Test A postemergence, galium; conditions: 0 to 100 scale, 0 no effect, 100 complete control
Procedure, shortened: as §1

rice (Oryza sativa) = test: Test B flooded paddy test, rice; conditions: Flood, 250 g ai/ha, applied to paddy water, 2-leaf stage, visual evaluation after 13 to 15 d
Procedure, shortened: (§2)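 Each response is a visual 0–100 rating made against untreated controls, where 0 is no effect and 100 is complete control; a dash marks no result. Compound was dosed into 3 cm paddy water over 2-leaf plants, assessed after 13 to 15 d.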

[16] = test system: sedge, umbrella (small-flower umbrella sedge, Cyperus difformis); test: Test B flooded paddy test, umbrella sedge; conditions: Flood, 250 g ai/ha, applied to paddy water, 2-leaf stage, visual evaluation after 13 to 15 d
Procedure, shortened: as §2

[17] = test system: ducksalad (Heteranthera limosa); test: Test B flooded paddy test, ducksalad; conditions: Flood, 250 g ai/ha, applied to paddy water, 2-leaf stage, visual evaluation after 13 to 15 d
Procedure, shortened: as §2

[18] = test system: barnyardgrass (Echinochloa crus-galli); test: Test B flooded paddy test, barnyardgrass; conditions: Flood, 250 g ai/ha, applied to paddy water, 2-leaf stage, visual evaluation after 13 to 15 d
Procedure, shortened: as §2

SMILES	Barnyardgrass plant response rating ([1]; 125 g ai/ha)	Kochia plant response rating (kochia (Kochia scoparia) [2]; 125 g ai/ha)	Ragweed plant response rating ([3]; 125 g ai/ha)	Ryegrass, Italian plant response rating ([4]; 125 g ai/ha)	Foxtail, Giant plant response rating ([5]; 125 g ai/ha)	Pigweed plant response rating ([6]; 125 g ai/ha)	Plant response rating, Barnyardgrass ([7]; 125 g ai/ha)	Plant response rating, Kochia (kochia (Kochia scoparia) [8]; 125 g ai/ha)	Plant response rating, Ragweed ([9]; 125 g ai/ha)	Plant response rating, Ryegrass, Italian ([10]; 125 g ai/ha)	Plant response rating, Foxtail, Giant ([11]; 125 g ai/ha)	Plant response rating, Pigweed ([12]; 125 g ai/ha)	Plant response rating, Wheat ([13]; 125 g ai/ha)	Plant response rating, Corn (corn (Zea mays); 125 g ai/ha)	Plant response rating, Blackgrass ([14]; 125 g ai/ha)	Plant response rating, Galium ([15]; 125 g ai/ha)	Plant response rating, Rice (0 to 100 scale, 0 is no effect, 100 is complete control) (rice (Oryza sativa))	Plant response rating, Sedge, Umbrella (0 to 100 scale, 0 is no effect, 100 is complete control) [16]	Plant response rating, Ducksalad (0 to 100 scale, 0 is no effect, 100 is complete control) [17]	Plant response rating, Barnyardgrass (0 to 100 scale, 0 is no effect, 100 is complete control) [18]	other results
C[C@H](Nc1nc(N)c(C(F)(F)F)c(C(F)(F)F)n1)c1cc2ccccc2s1 [Compound 60]	0	0	0	0	0	0	0	30	20	0	20	50	0	0	0	30	0	0	0	0	Barnyardgrass plant response rating ([1]; 500 g ai/ha): 50; Kochia plant response rating (kochia (Kochia scoparia) [2]; 500 g ai/ha): 0; Ragweed plant response rating ([3]; 500 g ai/ha): 0; Ryegrass, Italian plant response rating ([4]; 500 g ai/ha): 20; Foxtail, Giant plant response rating ([5]; 500 g ai/ha): 0; Pigweed plant response rating ([6]; 500 g ai/ha): 0; Plant response rating, Barnyardgrass ([7]; 500 g ai/ha): 50; Plant response rating, Kochia (kochia (Kochia scoparia) [8]; 500 g ai/ha): 100; Plant response rating, Ragweed ([9]; 500 g ai/ha): 60; Plant response rating, Ryegrass, Italian ([10]; 500 g ai/ha): 0; Plant response rating, Foxtail, Giant ([11]; 500 g ai/ha): 50; Plant response rating, Pigweed ([12]; 500 g ai/ha): 90; Plant response rating, Wheat ([13]; 500 g ai/ha): 0; Plant response rating, Corn (corn (Zea mays); 500 g ai/ha): 0; Plant response rating, Blackgrass ([14]; 500 g ai/ha): 20; Plant response rating, Galium ([15]; 500 g ai/ha): 40
Nc1nc(NC(c2cc3ccccc3s2)C2CC2)ncc1C(F)(F)F (racemic) [Compound 94]	0	60	50	50	70	60	40	70	50	50	60	90	0	0	0	40	10	45	40	35	Barnyardgrass plant response rating ([1]; 500 g ai/ha): 90; Kochia plant response rating (kochia (Kochia scoparia) [2]; 500 g ai/ha): 90; Ragweed plant response rating ([3]; 500 g ai/ha): 90; Ryegrass, Italian plant response rating ([4]; 500 g ai/ha): 90; Foxtail, Giant plant response rating ([5]; 500 g ai/ha): 100; Pigweed plant response rating ([6]; 500 g ai/ha): 100; Plant response rating, Barnyardgrass ([7]; 500 g ai/ha): 90; Plant response rating, Kochia (kochia (Kochia scoparia) [8]; 500 g ai/ha): 90; Plant response rating, Ragweed ([9]; 500 g ai/ha): 70; Plant response rating, Ryegrass, Italian ([10]; 500 g ai/ha): 90; Plant response rating, Foxtail, Giant ([11]; 500 g ai/ha): 90; Plant response rating, Pigweed ([12]; 500 g ai/ha): 100; Plant response rating, Wheat ([13]; 500 g ai/ha): 30; Plant response rating, Corn (corn (Zea mays); 500 g ai/ha): 20; Plant response rating, Blackgrass ([14]; 500 g ai/ha): 0; Plant response rating, Galium ([15]; 500 g ai/ha): 80
C[C@@H](Nc1nc(N)c(C(F)(F)F)c(C(F)(F)F)n1)C1Cc2ccccc2C1 [Compound 67]	0	0	0	0	0	30	0	50	0	0	0	20	0	0	0	20	0	0	0	0	Barnyardgrass plant response rating ([1]; 500 g ai/ha): 0; Kochia plant response rating (kochia (Kochia scoparia) [2]; 500 g ai/ha): 90; Ragweed plant response rating ([3]; 500 g ai/ha): 0; Ryegrass, Italian plant response rating ([4]; 500 g ai/ha): 0; Foxtail, Giant plant response rating ([5]; 500 g ai/ha): 0; Pigweed plant response rating ([6]; 500 g ai/ha): 90; Plant response rating, Barnyardgrass ([7]; 500 g ai/ha): 0; Plant response rating, Kochia (kochia (Kochia scoparia) [8]; 500 g ai/ha): 70; Plant response rating, Ragweed ([9]; 500 g ai/ha): 0; Plant response rating, Ryegrass, Italian ([10]; 500 g ai/ha): 0; Plant response rating, Foxtail, Giant ([11]; 500 g ai/ha): 0; Plant response rating, Pigweed ([12]; 500 g ai/ha): 60; Plant response rating, Wheat ([13]; 500 g ai/ha): 0; Plant response rating, Corn (corn (Zea mays); 500 g ai/ha): 0; Plant response rating, Blackgrass ([14]; 500 g ai/ha): 0; Plant response rating, Galium ([15]; 500 g ai/ha): 40
CC(Nc1nc(N)c(C(F)(F)F)c(C(F)(F)F)n1)C1Cc2ccccc2C1 (racemic) [Compound 69]	0	0	0	0	0	0	0	30	0	0	0	20	0	20	0	0	0	0	0	0	Barnyardgrass plant response rating ([1]; 500 g ai/ha): 0; Kochia plant response rating (kochia (Kochia scoparia) [2]; 500 g ai/ha): 70; Ragweed plant response rating ([3]; 500 g ai/ha): 70; Ryegrass, Italian plant response rating ([4]; 500 g ai/ha): 0; Foxtail, Giant plant response rating ([5]; 500 g ai/ha): 0; Pigweed plant response rating ([6]; 500 g ai/ha): 70; Plant response rating, Barnyardgrass ([7]; 500 g ai/ha): 0; Plant response rating, Kochia (kochia (Kochia scoparia) [8]; 500 g ai/ha): 80; Plant response rating, Ragweed ([9]; 500 g ai/ha): 0; Plant response rating, Ryegrass, Italian ([10]; 500 g ai/ha): 0; Plant response rating, Foxtail, Giant ([11]; 500 g ai/ha): 0; Plant response rating, Pigweed ([12]; 500 g ai/ha): 80; Plant response rating, Wheat ([13]; 500 g ai/ha): 0; Plant response rating, Corn (corn (Zea mays); 500 g ai/ha): 0; Plant response rating, Blackgrass ([14]; 500 g ai/ha): 30; Plant response rating, Galium ([15]; 500 g ai/ha): 0
C[C@@H](Nc1ncc([S+](C)[O-])c(N)n1)c1cc2ccccc2s1 (stereo partly drawn) [Compound 110]	0	0	80	0	0	30	10	10	30	0	0	80	0	10	0	70	15	90	60	20	Barnyardgrass plant response rating ([1]; 31 g ai/ha): 0; Kochia plant response rating (kochia (Kochia scoparia) [2]; 31 g ai/ha): 0; Ragweed plant response rating ([3]; 31 g ai/ha): 40; Ryegrass, Italian plant response rating ([4]; 31 g ai/ha): 0; Foxtail, Giant plant response rating ([5]; 31 g ai/ha): 0; Pigweed plant response rating ([6]; 31 g ai/ha): 0; Plant response rating, Barnyardgrass ([7]; 31 g ai/ha): 0; Plant response rating, Kochia (kochia (Kochia scoparia) [8]; 31 g ai/ha): 0; Plant response rating, Ragweed ([9]; 31 g ai/ha): 0; Plant response rating, Ryegrass, Italian ([10]; 31 g ai/ha): 0; Plant response rating, Foxtail, Giant ([11]; 31 g ai/ha): 0; Plant response rating, Pigweed ([12]; 31 g ai/ha): 60; Plant response rating, Wheat ([13]; 31 g ai/ha): 0; Plant response rating, Corn (corn (Zea mays); 31 g ai/ha): 0; Plant response rating, Blackgrass ([14]; 31 g ai/ha): 0; Plant response rating, Galium ([15]; 31 g ai/ha): 30
